Test results from patent publication US8192962B2, “Processes for detecting toxic substances” (Daikin Industries, Ltd., priority 2001, dated 2012).

Tested on: Energy system protein genes
Experiment: DNA chip mRNA expression in yeast, energy system protein genes (Table 4)
Format: cell-based, Saccharomyces cerevisiae S288C
In short: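 First, S288C yeast grown in YPD at 25° C. are dosed in log phase with one toxicant (growth-inhibiting, not lethal) for 2 h. Next, total RNA is extracted and poly(A) mRNA isolated and reverse-transcribed with Cy3/Cy5-dUTP. Finally, whole-genome chip fluorescence is read relative to unexposed cells.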

Cl[C@H]1[C@H](Cl)[C@@H](Cl)[C@@H](Cl)[C@H](Cl)[C@H]1Cl [(7), γ-hexachlorocyclohexane]
The level of expressed mRNA in the presence of chemical substance/The level of expressed mRNA in the absence of chemical substance (yeast gene YAL060W): 3.3 | The level of expressed mRNA in the presence of chemical substance/The level of expressed mRNA in the absence of chemical substance (yeast gene YBL058W, cells incubated two hours with the chemical substance): 1.5 | The level of expressed mRNA in the presence of chemical substance/The level of expressed mRNA in the absence of chemical substance (yeast gene YBL099W, cells incubated two hours with the chemical substance): 0.9 | The level of expressed mRNA in the presence of chemical substance/The level of expressed mRNA in the absence of chemical substance (yeast gene YBR001C, cells incubated two hours with the chemical substance): 0.9 | The level of expressed mRNA in the presence of chemical substance/The level of expressed mRNA in the absence of chemical substance (yeast gene YBR185C, cells incubated two hours with the chemical substance): 1.2 | The level of expressed mRNA in the presence of chemical substance/The level of expressed mRNA in the absence of chemical substance (yeast gene YBR221C, cells incubated two hours with the chemical substance): 1.5 | The level of expressed mRNA in the presence of chemical substance/The level of expressed mRNA in the absence of chemical substance (yeast gene YCL040W): 2.9 | The level of expressed mRNA in the presence of chemical substance/The level of expressed mRNA in the absence of chemical substance (yeast gene YCR012W): 1.4 | The level of expressed mRNA in the presence of chemical substance/The level of expressed mRNA in the absence of chemical substance (yeast gene YCR046C, cells incubated two hours with the chemical substance): 1.2 | The level of expressed mRNA in the presence of chemical substance/The level of expressed mRNA in the absence of chemical substance (yeast gene YCR105W, cells incubated two hours with the chemical substance): 1.0 | The level of expressed mRNA in the presence of chemical substance/The level of expressed mRNA in the absence of chemical substance (yeast gene YDL021W): 5.9 | The level of expressed mRNA in the presence of chemical substance/The level of expressed mRNA in the absence of chemical substance (yeast gene YDL067C, cells incubated two hours with the chemical substance): 0.8 | The level of expressed mRNA in the presence of chemical substance/The level of expressed mRNA in the absence of chemical substance (yeast gene YDL078C, cells incubated two hours with the chemical substance): 1.7 | The level of expressed mRNA in the presence of chemical substance/The level of expressed mRNA in the absence of chemical substance (yeast gene YDL107W, cells incubated two hours with the chemical substance): 1.8 | The level of expressed mRNA in the presence of chemical substance/The level of expressed mRNA in the absence of chemical substance (yeast gene YDL174C): 3.6 | The level of expressed mRNA in the presence of chemical substance/The level of expressed mRNA in the absence of chemical substance (yeast gene YDL181W, cells incubated two hours with the chemical substance): 1.1 | The level of expressed mRNA in the presence of chemical substance/The level of expressed mRNA in the absence of chemical substance (yeast gene YDR001C): 1.5 | The level of expressed mRNA in the presence of chemical substance/The level of expressed mRNA in the absence of chemical substance (yeast gene YDR050C, cells incubated two hours with the chemical substance): 1.5 | The level of expressed mRNA in the presence of chemical substance/The level of expressed mRNA in the absence of chemical substance (yeast gene YDR079W, cells incubated two hours with the chemical substance): 1.3 | The level of expressed mRNA in the presence of chemical substance/The level of expressed mRNA in the absence of chemical substance (yeast gene YDR178W, cells incubated two hours with the chemical substance): 0.6 | The level of expressed mRNA in the presence of chemical substance/The level of expressed mRNA in the absence of chemical substance (yeast gene YDR231C): 1.7 | The level of expressed mRNA in the presence of chemical substance/The level of expressed mRNA in the absence of chemical substance (yeast gene YDR298C, cells incubated two hours with the chemical substance): 1.0 | The level of expressed mRNA in the presence of chemical substance/The level of expressed mRNA in the absence of chemical substance (yeast gene YDR377W, cells incubated two hours with the chemical substance): 1.1 | The level of expressed mRNA in the presence of chemical substance/The level of expressed mRNA in the absence of chemical substance (yeast gene YDR529C, cells incubated two hours with the chemical substance): 0.5 | The level of expressed mRNA in the presence of chemical substance/The level of expressed mRNA in the absence of chemical substance (yeast gene YEL024W, cells incubated two hours with the chemical substance): 0.7 | The level of expressed mRNA in the presence of chemical substance/The level of expressed mRNA in the absence of chemical substance (yeast gene YEL039C, cells incubated two hours with the chemical substance): 0.6 | The level of expressed mRNA in the presence of chemical substance/The level of expressed mRNA in the absence of chemical substance (yeast gene YER178W): 1.6 | The level of expressed mRNA in the presence of chemical substance/The level of expressed mRNA in the absence of chemical substance (yeast gene YFL057C): 1.8 | The level of expressed mRNA in the presence of chemical substance/The level of expressed mRNA in the absence of chemical substance (yeast gene YFR053C): 2.1 | The level of expressed mRNA in the presence of chemical substance/The level of expressed mRNA in the absence of chemical substance (yeast gene YGL018C, cells incubated two hours with the chemical substance): 1.1 | The level of expressed mRNA in the presence of chemical substance/The level of expressed mRNA in the absence of chemical substance (yeast gene YGL062W): 1.3 | The level of expressed mRNA in the presence of chemical substance/The level of expressed mRNA in the absence of chemical substance (yeast gene YGL187C, cells incubated two hours with the chemical substance): 0.6 | The level of expressed mRNA in the presence of chemical substance/The level of expressed mRNA in the absence of chemical substance (yeast gene YGL191W, cells incubated two hours with the chemical substance): 1.0 | The level of expressed mRNA in the presence of chemical substance/The level of expressed mRNA in the absence of chemical substance (yeast gene YGL205W, cells incubated two hours with the chemical substance): 0.8 | The level of expressed mRNA in the presence of chemical substance/The level of expressed mRNA in the absence of chemical substance (yeast gene YGL256W, cells incubated two hours with the chemical substance): 0.5 | The level of expressed mRNA in the presence of chemical substance/The level of expressed mRNA in the absence of chemical substance (yeast gene YGR008C): 3.7 | The level of expressed mRNA in the presence of chemical substance/The level of expressed mRNA in the absence of chemical substance (yeast gene YGR043C): 6.5 | The level of expressed mRNA in the presence of chemical substance/The level of expressed mRNA in the absence of chemical substance (yeast gene YGR062C, cells incubated two hours with the chemical substance, 25° C., YPD medium): 1.3 | The level of expressed mRNA in the presence of chemical substance/The level of expressed mRNA in the absence of chemical substance (yeast gene YGR087C, cells incubated two hours with the chemical substance): 1.0 | The level of expressed mRNA in the presence of chemical substance/The level of expressed mRNA in the absence of chemical substance (yeast gene YGR174C, cells incubated two hours with the chemical substance): 1.0 | The level of expressed mRNA in the presence of chemical substance/The level of expressed mRNA in the absence of chemical substance (yeast gene YGR192C): 1.7 | The level of expressed mRNA in the presence of chemical substance/The level of expressed mRNA in the absence of chemical substance (yeast gene YGR244C): 3.9 | The level of expressed mRNA in the presence of chemical substance/The level of expressed mRNA in the absence of chemical substance (yeast gene YGR254W): 1.5 | The level of expressed mRNA in the presence of chemical substance/The level of expressed mRNA in the absence of chemical substance (yeast gene YHR179W): 1.9 | The level of expressed mRNA in the presence of chemical substance/The level of expressed mRNA in the absence of chemical substance (yeast gene YIL160C): 1.1 | The level of expressed mRNA in the presence of chemical substance/The level of expressed mRNA in the absence of chemical substance (yeast gene YIR031C, cells incubated two hours with the chemical substance): 1.4 | The level of expressed mRNA in the presence of chemical substance/The level of expressed mRNA in the absence of chemical substance (yeast gene YJL052W): 2.1 | The level of expressed mRNA in the presence of chemical substance/The level of expressed mRNA in the absence of chemical substance (yeast gene YJL121C, cells incubated two hours with the chemical substance): 0.7 | The level of expressed mRNA in the presence of chemical substance/The level of expressed mRNA in the absence of chemical substance (yeast gene YJL166W, cells incubated two hours with the chemical substance): 0.8 | The level of expressed mRNA in the presence of chemical substance/The level of expressed mRNA in the absence of chemical substance (yeast gene YJL216C, cells incubated two hours with the chemical substance): 1.5
